The record followed here is US11339130B1 (Blade Therapeutics, Inc., priority 2016, dated 2022).

Where only a bound is given, the exact number is not on record here.

Common to all, as to type: biochemical
For one test, the target named is T1, Human Calpain 1/NS1 (Homo sapiens, UniProt P07384).
T1 sequence (P07384 1-714): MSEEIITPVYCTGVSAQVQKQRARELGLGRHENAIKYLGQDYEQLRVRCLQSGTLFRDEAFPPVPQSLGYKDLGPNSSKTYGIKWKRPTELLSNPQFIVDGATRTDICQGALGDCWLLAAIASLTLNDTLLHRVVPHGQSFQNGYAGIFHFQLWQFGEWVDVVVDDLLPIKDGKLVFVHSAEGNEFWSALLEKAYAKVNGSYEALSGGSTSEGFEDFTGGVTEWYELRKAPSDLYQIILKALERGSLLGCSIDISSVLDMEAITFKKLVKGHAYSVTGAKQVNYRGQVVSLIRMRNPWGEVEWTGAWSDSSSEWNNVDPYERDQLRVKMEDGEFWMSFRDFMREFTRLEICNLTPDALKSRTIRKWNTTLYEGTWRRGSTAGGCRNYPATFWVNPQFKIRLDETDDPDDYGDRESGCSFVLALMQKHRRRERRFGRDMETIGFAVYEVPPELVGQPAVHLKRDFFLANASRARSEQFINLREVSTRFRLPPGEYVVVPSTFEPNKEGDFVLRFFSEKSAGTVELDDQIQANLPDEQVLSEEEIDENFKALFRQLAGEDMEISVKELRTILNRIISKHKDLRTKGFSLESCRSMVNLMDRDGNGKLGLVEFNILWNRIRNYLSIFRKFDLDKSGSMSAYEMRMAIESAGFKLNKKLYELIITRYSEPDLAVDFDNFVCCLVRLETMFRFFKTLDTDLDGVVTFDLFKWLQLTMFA
T1 sequence (P04632 1-268 partner): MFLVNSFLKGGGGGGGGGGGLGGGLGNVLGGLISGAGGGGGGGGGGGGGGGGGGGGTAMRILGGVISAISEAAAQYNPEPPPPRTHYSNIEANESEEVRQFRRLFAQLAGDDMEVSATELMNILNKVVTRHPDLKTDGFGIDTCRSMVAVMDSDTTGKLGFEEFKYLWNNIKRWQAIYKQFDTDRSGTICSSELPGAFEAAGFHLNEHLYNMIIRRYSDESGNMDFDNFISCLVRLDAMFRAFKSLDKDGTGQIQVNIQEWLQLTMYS
The experiment in a line: Calpain inhibition continuous fluorescence (FRET) assay, Human Calpain 1/NS1. The following applies: Column A; read-out: Human Calpain 1/NS1 IC50. An outline of the steps: (§1)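 Buffer 50 mM Tris pH 7.5/100 mM NaCl/1 mM DTT; enzyme + cpd preinc 25C; start w/ FRET substrate + CaCl2; kinetic 490/520 nm, 10 min; slopes 1-5 min; 4-PL IC50.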

For another test, the target named is T2, Human Calpain 2/NS1 (Homo sapiens, UniProt P17655).
T2 sequence (P17655 1-700): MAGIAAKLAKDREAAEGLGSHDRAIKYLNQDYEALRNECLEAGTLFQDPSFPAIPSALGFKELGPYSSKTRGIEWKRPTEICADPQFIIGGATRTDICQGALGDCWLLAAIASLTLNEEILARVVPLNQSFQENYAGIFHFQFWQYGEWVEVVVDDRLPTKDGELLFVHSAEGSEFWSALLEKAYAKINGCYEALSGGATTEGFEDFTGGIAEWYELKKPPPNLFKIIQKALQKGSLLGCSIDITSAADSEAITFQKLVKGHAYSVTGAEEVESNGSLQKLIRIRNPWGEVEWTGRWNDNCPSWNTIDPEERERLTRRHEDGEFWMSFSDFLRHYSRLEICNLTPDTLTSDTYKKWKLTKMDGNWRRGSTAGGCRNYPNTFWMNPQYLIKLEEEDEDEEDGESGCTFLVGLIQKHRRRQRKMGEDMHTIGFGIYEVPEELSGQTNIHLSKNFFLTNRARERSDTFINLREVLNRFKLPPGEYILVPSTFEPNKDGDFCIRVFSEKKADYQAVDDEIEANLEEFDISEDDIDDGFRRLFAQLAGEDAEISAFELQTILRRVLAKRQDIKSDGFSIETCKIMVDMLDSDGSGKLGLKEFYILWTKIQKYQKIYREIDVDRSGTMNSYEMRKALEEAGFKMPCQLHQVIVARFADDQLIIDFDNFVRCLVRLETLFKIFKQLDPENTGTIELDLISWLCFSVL
T2 sequence (P04632 1-268 partner): T1 sequence (P04632 1-268 partner)
Briefly: Calpain inhibition continuous fluorescence (FRET) assay, Human Calpain 2/NS1. To be noted: Column B; read-out: Human Calpain 2/NS1 IC50. Put shortly: as §1

The next test deals with T3, Human Calpain 9/NS1 (Homo sapiens, UniProt O14815).
T3 sequence (O14815 1-690): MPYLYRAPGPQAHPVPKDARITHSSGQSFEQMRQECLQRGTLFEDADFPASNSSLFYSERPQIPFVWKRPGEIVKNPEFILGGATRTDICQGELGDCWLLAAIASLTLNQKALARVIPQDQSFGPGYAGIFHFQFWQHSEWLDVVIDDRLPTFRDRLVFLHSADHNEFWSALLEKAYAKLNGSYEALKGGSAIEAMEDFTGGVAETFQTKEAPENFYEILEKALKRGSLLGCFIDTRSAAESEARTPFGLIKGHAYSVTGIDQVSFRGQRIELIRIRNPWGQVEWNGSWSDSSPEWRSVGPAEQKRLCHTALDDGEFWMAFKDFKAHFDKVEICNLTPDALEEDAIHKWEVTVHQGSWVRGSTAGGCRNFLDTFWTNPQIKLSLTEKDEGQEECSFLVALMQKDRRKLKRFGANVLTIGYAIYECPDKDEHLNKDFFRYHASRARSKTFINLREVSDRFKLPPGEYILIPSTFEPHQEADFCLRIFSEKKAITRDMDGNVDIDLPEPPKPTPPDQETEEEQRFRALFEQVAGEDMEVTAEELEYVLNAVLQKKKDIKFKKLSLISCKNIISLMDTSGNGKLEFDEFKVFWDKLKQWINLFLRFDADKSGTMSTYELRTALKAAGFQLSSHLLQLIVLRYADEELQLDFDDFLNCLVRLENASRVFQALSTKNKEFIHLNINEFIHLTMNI
T3 sequence (P04632 1-268 partner): T1 sequence (P04632 1-268 partner)
The experiment in a line: Calpain inhibition continuous fluorescence (FRET) assay, Human Calpain 9/NS1. The following applies: Column C; read-out: Human Calpain 9/NS1 IC50. Put shortly: as §1

For `Cc1cc(C(=O)N[C@@H](Cc2ccccc2)C(=O)C(=O)NCc2ccc(Cl)c(Cl)c2)n(-c2ccccc2)n1` [Compound 149, (S)—N-(4-((3,4-dichlorobenzyl)amino)-3,4-dioxo-1-phenylbutan-2-yl)-3-methyl-1-phenyl-1H-pyrazole-5-carboxamide], the IC50 on Human Calpain 1/NS1, on Human Calpain 2/NS1 and at Human Calpain 9/NS1 was over 10 µM each time.

In the case of `Cc1noc(-c2ccccc2)c1C(=O)N[C@@H](Cc1ccccc1)C(=O)C(=O)NCc1cccc(OC(F)(F)F)c1` [Compound 150, (S)—N-(3,4-dioxo-1-phenyl-4-((3-(trifluoromethoxy)benzyl)amino)butan-2-yl)-3-methyl-5-phenylisoxazole-4-carboxamide], the IC50 on Human Calpain 1/NS1, at Human Calpain 2/NS1 and on Human Calpain 9/NS1 was over 10 µM throughout.

Take `Cc1noc(-c2ccccc2)c1C(=O)N[C@@H](Cc1ccccc1)C(=O)C(=O)NCc1ccc(S(C)(=O)=O)cc1` [Compound 151, (S)-3-methyl-N-(4-((4-(methylsulfonyl)benzyl)amino)-3,4-dioxo-1-phenylbutan-2-yl)-5-phenylisoxazole-4-carboxamide]: the IC50 on Human Calpain 1/NS1, at Human Calpain 2/NS1 and at Human Calpain 9/NS1 was under 3 µM throughout.

On to `Cc1noc(-c2ccccc2)c1C(=O)N[C@@H](Cc1ccccc1)C(=O)C(=O)NCc1cccc(S(C)(=O)=O)c1` [Compound 152, (s)-3-methyl-N-(4-((3-(methylsulfonyl)benzyl)amino)-3,4-dioxo-1-phenylbutan-2-yl)-5-phenylisoxazole-4-carboxamide], for which the IC50 on Human Calpain 1/NS1, on Human Calpain 2/NS1 and on Human Calpain 9/NS1 was under 3 µM each time.

In the case of `Cn1ncc(C(=O)N[C@@H](Cc2ccccc2)C(=O)C(N)=O)c1-c1ccncc1` [Compound 165, (S)—N-(4-amino-3,4-dioxo-1-phenylbutan-2-yl)-1-methyl-5-(pyridin-4-yl)-1H-pyrazole-4-carboxamide], the IC50 at Human Calpain 1/NS1, at Human Calpain 2/NS1 and at Human Calpain 9/NS1 was under 3 µM each time.

Regarding `Cc1ccc(-c2c(C(=O)N[C@@H](Cc3ccccc3)C(=O)C(N)=O)cnn2C)cc1` [Compound 167, (S)—N-(4-amino-3,4-dioxo-1-phenylbutan-2-yl)-1-methyl-5-(p-tolyl)-1H-pyrazole-4-carboxamide], the IC50 on Human Calpain 1/NS1, on Human Calpain 2/NS1 and on Human Calpain 9/NS1 was under 3 µM throughout.

As to `Cn1cc(C(=O)N[C@@H](Cc2ccccc2)C(=O)C(N)=O)c(-c2ccccn2)n1` [Compound 169, (S)—N-(4-amino-3,4-dioxo-1-phenylbutan-2-yl)-1-methyl-3-(pyridin-2-yl)-1H-pyrazole-4-carboxamide], the IC50 on Human Calpain 1/NS1, on Human Calpain 2/NS1 and at Human Calpain 9/NS1 was under 3 µM in each case.

Take `Cn1ncc(C(=O)N[C@@H](Cc2ccccc2)C(=O)C(N)=O)c1-c1cncnc1` [Compound 176, (S)—N-(4-amino-3,4-dioxo-1-phenylbutan-2-yl)-1-methyl-5-(pyrimidin-5-yl)-1H-pyrazole-4-carboxamide]: the IC50 on Human Calpain 1/NS1, on Human Calpain 2/NS1 and at Human Calpain 9/NS1 was under 3 µM each time.

`Cn1ncc(C(=O)N[C@@H](Cc2ccccc2)C(=O)C(N)=O)c1-c1cccnc1` [Compound 189, (S)—N-(4-amino-3,4-dioxo-1-phenylbutan-2-yl)-1-methyl-5-(pyridin-3-yl)-1H-pyrazole-4-carboxamide]: the IC50 on Human Calpain 1/NS1, at Human Calpain 2/NS1 and on Human Calpain 9/NS1 was under 3 µM throughout.

For `Cc1ccccc1-c1c(C(=O)N[C@@H](Cc2ccccc2)C(=O)C(N)=O)cnn1C` [Compound 190, (S)—N-(4-amino-3,4-dioxo-1-phenylbutan-2-yl)-1-methyl-5-(o-tolyl)-1H-pyrazole-4-carboxamide], the IC50 at Human Calpain 1/NS1 was 3 to 10 µM; at Human Calpain 2/NS1, over 10 µM; on Human Calpain 9/NS1, 3 to 10 µM.
